Here are results for 4 compounds from patent US4808727A, “Imidazolium hydrogen carbonates” (Hoffmann-LaRoche Inc., priority 1986, dated 1989).

One data set concerns Litomosoides carinii. Briefly: filaricidal activity in cotton rats infected with Litomosoides carinii (dead adult filaria in pleural cavity). It is filed as in vivo, Litomosoides carinii in cotton rats (Sigmodon hispidus). The settings on record: sc, 1008 h, s.c., infected cotton rats treated 14 weeks after infection, dissected 42 days after treatment, dosage at which 90% of worms are dead, Probit analysis. As to the method: (§1) The filaricidal activity of the compounds of formula III can be determined, for example, on cotton rats (Sigmodon hispidus) which have been infected with Litomosoides carinii. The infection with L. carinii is transmitted by the blood-sucking mite (Bdellonyssus bacoti) in which the development of the microfilaria to infectious larvae takes place. The cotton rats are infected by exposing them to bites of infected mites. Fourteen (14) weeks after the infection, groups of 2-4 animals are treated subcutaneously with the compound to be tested. Forty-two (42) days after treatment with the compound to be tested, the experimental animals are dissected, whereby the adult filaria are removed from the pleural cavity. Living and dead or encapsulated worms are separated from one another and weighed. The filaricidal activity is expressed as the percentage proportion of dead macrofilaria per treatment group. The ED90 is then determined by means of Probit analysis using the values from different dosage groups. The ED90 is that dosage at which 90% of the worms removed from the pleural cavity are dead. In the following Table, there are compiled the results which have been obtained in the previously described test with representative members of the class of compound defined by formula III. Moreover, the Table contains data concerning the acute toxicity of some of these compounds in mg/per kg in the case of single oral administration to mice.

The nature of data set [1]: acute toxicity, single oral administration to mice. The note with it: mouse, in vivo, p.o. As to the method: as §1, with “Moreover, the Table contains data concerning the acute toxicity of some of these compounds in mg/per kg in the case of single oral administration to mice.” left out

What is called LD50 is the dose expected to kill half of the subjects tested. For the compound `CN(C)C=Cc1n(N=Cc2ccc(N(C)C)cc2)cc[n+]1N=Cc1ccc(N(C)C)cc1.[Cl-]` [Compound A, 1,3-bis[[p-(dimethylamino)benzylidene]amino]-2-[2-(dimethylamino)vinyl]imidazolium chloride], the ED90 in the data set on Litomosoides carinii is 1 mg/kg. The compound also registered an LD50 in data set [1] of 312 to 625 mg/kg.

The compound `CC(C)c1n(N=Cc2ccc(N(C)C)cc2)cc[n+]1N=Cc1ccc(N(C)C)cc1.[Cl-]` [Compound B, 1,3-bis[[p-(dimethylamino)benzylidene]amino]-2-isopropyl-imidazolium chloride] returned an ED90 in the data set on Litomosoides carinii of 0.5 mg/kg.

The compound `Cc1n(N=Cc2ccc(N(C)C)cc2)cc[n+]1N=Cc1ccc(N(C)C)cc1.[Cl-]` [Compound C, 1,3-bis[[p-(dimethylamino)benzylidene]amino]-2-methylimidazolium chloride] displayed an ED90 with Litomosoides carinii of 0.85 mg/kg.

`CN(C)c1ccc(C=Nn2cc[n+](N=Cc3ccc(N(C)C)cc3)c2-c2ccccc2)cc1.[Cl-]` [Compound D, 1,3-bis[[p-(dimethylamino)benzylidene]amino]-2-phenylimidazolium chloride] had an ED90 in the data set with Litomosoides carinii of under 1 mg/kg. The median lethal dose (LD50) in data set [1] was 1250 to 2500 mg/kg.
